Reference: patent publication US8546377B2 (AbbVie Inc., priority 2009, dated 2013)
Read-outs that look alike come from different tables or passages of the source.

Legend:
[1] = target: T1, 5HT2C receptors (Homo sapiens, UniProt P28335); assay: Human 5-HT2C functional assay in 1321N1 cells (intracellular calcium, FLIPR); assay type: cell-based; set-up: expressed in transfected cells; host or cells: 1321N1 cells; details: for EC50: 1321N1 cells stably transfected, maximum calcium response, read-out: EC50 (μM), 5-HT2c Agonist Activity; for Emax: 1321N1 cells, percentage relative to the effect of serotonin, read-out: Emax (%), 5-HT2c Agonist Activity
T1 sequence (P28335 33-458): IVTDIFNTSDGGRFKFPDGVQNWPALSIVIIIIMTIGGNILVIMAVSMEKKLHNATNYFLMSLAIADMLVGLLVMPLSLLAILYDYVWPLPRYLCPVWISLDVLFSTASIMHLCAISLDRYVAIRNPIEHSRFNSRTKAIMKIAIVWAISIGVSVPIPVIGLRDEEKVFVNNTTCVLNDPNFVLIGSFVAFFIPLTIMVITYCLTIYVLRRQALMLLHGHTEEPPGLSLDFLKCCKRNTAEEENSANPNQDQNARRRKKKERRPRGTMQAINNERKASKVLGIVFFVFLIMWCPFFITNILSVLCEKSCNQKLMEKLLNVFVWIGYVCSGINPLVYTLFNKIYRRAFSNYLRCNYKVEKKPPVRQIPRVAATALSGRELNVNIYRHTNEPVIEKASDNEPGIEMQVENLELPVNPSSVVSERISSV
Description: (ii) Human 5-HT2C Functional Assay in 1321N1 Cells
Functional activity was determined by testing the effect of the compounds on intracellular calcium levels in 1321N1 cells stably transfected with the human 5-HT2C receptor. Cells were seeded into 96-well plates at 50,000 cells/well and grown overnight in tissue culture medium (DMEM with Glutamax I (Invitrogen), containing 10% dFCS, 50 μg/mL Gentamicin, 400 μg/mL Geneticin) at 37° C. and 7% CO2. Growth medium was replaced by medium without dFCS for overnight incubation. Cells were loaded with a fluorescent calcium-sensitive dye in the presence of 1% probenicid according to the manufacturer's protocol (Fluo4 AM, Molecular Devices). Serial compound dilutions (final concentrations 10^−10 to 10^−5 M) were added to the cells either alone or in the presence of serotonin (10^−9 M) and the maximum calcium response was determined using a FLIPR instrument (Molecular Devices). Concentration-response curves were fitted using a four-parameter logistic equation (GraphPad Prism). The concentration at which the compound exerts half its maximal effect is named the ‘effective concentration 50’ or ‘EC50’ and is listed in Table 2.
Emax is the maximum functional response or efficacy expressed as a percentage relative to the effect of serotonin.

[2] = target: T2, human serotonin 5-HT2c receptor (Homo sapiens, UniProt P28335); assay: Human 5-HT2C receptor radioligand binding assay (agonist site, [125I](±)DOI); details: membranes of transfected CHO cells, 0.2 nM [125I](±)DOI, 15 minutes at 37° C.
T2 construct: expressed in transfected cells; host or cells: CHO cells (membrane homogenate)
T2 sequence (P28335 33-458): T1 sequence (P28335 33-458)
Description: To determine the effectiveness of compounds having a formula (I), these compounds can be evaluated in a radioligand binding assay for the agonist site of the human serotonin 5-HT2c receptor or in vitro models of cellular function.
(i) Human 5-HT2C Receptor Radioligand Binding Assay
Affinity of compounds for the agonist site of the 5-HT2c receptor in transfected CHO cells was determined in a radioligand binding assay essentially as described by Bryant, H. U., et al., Life Sciences (1996) 59(15), 1259-1268.

[3] = target: T1, 5HT2C receptors; assay: Human 5-HT2C functional assay in CHO-K1 cells (calcium flux, FLIPR); assay type: cell-based; set-up: expressed in transfected cells; host or cells: CHO-K1 cells; details: for Emax: percentage relative to the effect of serotonin
Procedure, shortened: (§1)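 Frozen CHO-K1 cells over-expressing receptor, serum-starved overnight, loaded with Ca4 dye plus 2.5 mM probenecid for 60 min at room temperature. FLIPR fluorescence (ex 480/em 530 nm, 25° C) recorded 3 min after compound addition; 6-point 1:10 series from 10 μM, 0.2% DMSO. Response normalized to serotonin, 4-parameter fit gives EC50; Emax as % of serotonin.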

[4] = target: T3, 5HT2B receptors (Homo sapiens, UniProt P41595); assay: Human 5-HT2B functional assay in CHO-K1 cells (calcium flux, FLIPR); assay type: cell-based
T3 construct: expressed in transfected cells; host or cells: CHO-K1 cells
T3 sequence (P41595 whole entry): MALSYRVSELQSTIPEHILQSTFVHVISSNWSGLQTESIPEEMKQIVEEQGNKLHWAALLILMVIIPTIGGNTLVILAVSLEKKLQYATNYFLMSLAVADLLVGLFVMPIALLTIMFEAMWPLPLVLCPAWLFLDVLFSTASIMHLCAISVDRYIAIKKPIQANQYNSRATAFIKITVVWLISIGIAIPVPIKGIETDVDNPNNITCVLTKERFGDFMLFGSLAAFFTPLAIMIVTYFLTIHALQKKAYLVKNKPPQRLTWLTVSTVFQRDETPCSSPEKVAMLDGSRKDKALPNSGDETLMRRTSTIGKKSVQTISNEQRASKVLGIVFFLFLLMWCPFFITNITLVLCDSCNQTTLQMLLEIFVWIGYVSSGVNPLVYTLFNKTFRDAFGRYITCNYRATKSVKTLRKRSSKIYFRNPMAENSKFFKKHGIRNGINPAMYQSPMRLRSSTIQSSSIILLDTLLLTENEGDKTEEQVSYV
Procedure, shortened: as §1

[5] = CHO-K1 cells over-expressing 5HT2C, calcium flux, read-out: EC50 (μM), 5-HT2c Agonist Activity
[6] = CHO-K1 cells, read-out: Emax (%), 5-HT2c Agonist Activity
[7] = CHO-K1 cells over-expressing 5HT2B, calcium flux, read-out: EC50 (μM), 5-HT2B Agonist Activity

SMILES	EC50 [1] [µM]	Emax [1] [%]	Ki [2] [µM]	further results
O=C1CC2CNCCN2c2ccc(F)cc2N1 (stereo not shown) [Example 34, 9-fluoro-1,2,3,4,4a,5-hexahydropyrazino[1,2-a][1,5]-benzodiazepin-6(7H)-one]	0.0893	100	0.19	
O=C1CC2CNCCN2c2c(Br)cccc2N1 (stereo not shown) [Example 30, 11-bromo-1,2,3,4,4a,5-hexahydropyrazino[1,2-a][1,5]benzodiazepin-6(7H)-one]	0.0017	113	0.016	
O=C1CC2CNCCN2c2ccc3ccccc3c2N1 (stereo not shown) [Example 39, 3,3a,4,5,6,7-hexahydronaphtho[1,2-b]pyrazino[1,2-d][1,4]diazepin-2(1H)-one]	> 10		0.034	
Cc1ccc2c(c1)N1CCNCC1CC(=O)N2 (stereo not shown) [Example 10, 10-methyl-1,2,3,4,4a,5-hexahydropyrazino[1,2-a][1,5]benzodiazepin-6(7H)-one]	0.003	99	0.0083	
O=C1CC2CNCCN2c2cc(CCc3ccccc3)ccc2N1 (stereo not shown) [Example 29, 10-(2-phenylethyl)-1,2,3,4,4a,5-hexahydropyrazino[1,2-a][1,5]benzodiazepin-6(7H)-one]	0.0043	104	0.011	
O=C1CC2CNCCN2c2cc(/C=C/c3ccc(F)cc3)ccc2N1 (stereo not shown) [Example 26, 10-[(E)-2-(4-fluorophenyl)vinyl]-1,2,3,4,4a,5-hexahydropyrazino[1,2-a][1,5]benzodiazepin-6(7H)-one]	0.0855	98.5	0.032	
COc1ccc2c(c1)N1CCNCC1CC(=O)N2 (stereo not shown) [Example 12, 10-methoxy-1,2,3,4,4a,5-hexahydropyrazino[1,2-a][1,5]benzodiazepin-6(7H)-one]	0.0381	83.5	0.038	
Clc1cc2c(cc1Cl)N1CCNCC1CCN2 (stereo not shown) [Example 16, 9,10-dichloro-1,2,3,4,4a,5,6,7-octahydropyrazino[1,2-a][1,5]benzodiazepine]	0.0018	91	0.004	
O=C1CC2CNCCN2c2cc(Cl)ccc2N1 (stereo not shown) [Example 3, 10-chloro-1,2,3,4,4a,5-hexahydropyrazino[1,2-a][1,5]benzodiazepin-6(7H)-one]	0.0017	93	0.012	
Clc1ccccc1CN1CCC2CNCCN2c2ccccc21 (stereo not shown) [Example 21, 7-(2-chlorobenzyl)-1,2,3,4,4a,5,6,7-octahydropyrazino[1,2-a][1,5]benzodiazepine]	0.044	93	0.097	
O=C1CC2CNCCN2c2cc(/C=C/c3ccccc3)ccc2N1 (stereo not shown) [Example 6, 10-[(E)-2-phenylvinyl]-1,2,3,4,4a,5-hexahydropyrazino[1,2-a][1,5]benzodiazepin-6(7H)-one]	0.0298	89.5	0.0035	
O=C1CC2CNCCN2c2cc(/C=C/c3cccc(F)c3)ccc2N1 (stereo not shown) [Example 9, 10-[(E)-2-(3-fluorophenyl)vinyl]-1,2,3,4,4a,5-hexahydropyrazino[1,2-a][1,5]benzodiazepin-6(7H)-one]			0.0032	
O=C1CC2CNCCN2c2cc(/C=C/c3ccc(Cl)cc3)ccc2N1 (stereo not shown) [Example 27, 10-[(E)-2-(4-chlorophenyl)vinyl]-1,2,3,4,4a,5-hexahydropyrazino[1,2-a][1,5]benzodiazepin-6(7H)-one]	0.183	96.5	0.013	
O=C1CC2CNCCN2c2ccc(Br)cc2N1 (stereo not shown) [Example 13, 9-bromo-1,2,3,4,4a,5-hexahydropyrazino[1,2-a][1,5]benzodiazepin-6(7H)-one]	0.0683	79	0.23	
N#Cc1ccc2c(c1)N1CCNCC1CC(=O)N2 (stereo not shown) [Example 11, 6-oxo-1,2,3,4,4a,5,6,7-octahydropyrazino[1,2-a][1,5]benzodiazepine-10-carbonitrile]	0.0938	104	0.19	
CCN1CCN2c3ccccc3NC(=O)CC2C1 (stereo not shown) [Example 23, 3-ethyl-1,2,3,4,4a,5-hexahydropyrazino[1,2-a][1,5]benzodiazepin-6(7H)-one]	0.165	87	0.19	
O=C1CC2CNCCN2c2ccccc2N1 (stereo not shown) [Example 1, 1,2,3,4,4a,5-hexahydropyrazino[1,2-a][1,5]benzodiazepin-6(7H)-one]	0.0135	100	0.086	
O=C1CC2CNCCN2c2cc(-c3cccc(Cl)c3)ccc2N1 (stereo not shown) [Example 7, 10-(3-chlorophenyl)-1,2,3,4,4a,5-hexahydropyrazino[1,2-a][1,5]benzodiazepin-6(7H)-one]	0.0279	86	0.041	
O=C1CC2CNCCN2c2ccc(-c3ccc(Cl)cc3)cc2N1 (stereo not shown) [Example 14, 9-(4-chlorophenyl)-1,2,3,4,4a,5-hexahydropyrazino[1,2-a][1,5]-benzodiazepin-6(7H)-one]			0.17	
CN1C(=O)CC2CNCCN2c2ccccc21 (stereo not shown) [Example 20, 7-methyl-1,2,3,4,4a,5-hexahydropyrazino[1,2-a][1,5]benzodiazepin-6(7H)-one]	0.0759	103	0.22	
O=C1CC2CNCCN2c2cc(Br)ccc2N1 (stereo not shown) [Example 4, 10-bromo-1,2,3,4,4a,5-hexahydropyrazino[1,2-a][1,5]-benzodiazepin-6(7H)-one]	0.0028	92	0.0069	
O=C1CC2CNCCN2c2cc(-c3ccccc3Cl)ccc2N1 (stereo not shown) [Example 8, 10-(2-chlorophenyl)-1,2,3,4,4a,5-hexahydropyrazino[1,2-a][1,5]benzodiazepin-6(7H)-one]			0.14	
COc1ccc(-c2ccc3c(c2)N2CCNCC2CC(=O)N3)cc1 (stereo not shown) [Example 58, 10-(4-methoxyphenyl)-1,2,3,4,4a,5-hexahydropyrazino[1,2-a][1,5]benzodiazepin-6(7H)-one]				EC50 [3, 5]: 0.2 µM; Emax [3, 6]: 110%; EC50 [4, 7]: > 10 µM
O=C1CC2CNCCN2c2cc(CCc3cccc(F)c3)ccc2N1 (stereo not shown) [Example 145, 10-[2-(3-fluorophenyl)ethyl]-1,2,3,4,4a,5-hexahydropyrazino[1,2-a][1,5]benzodiazepin-6(7H)-one]				EC50 [3, 5]: 0.006 µM; Emax [3, 6]: > 120%; EC50 [4, 7]: > 10 µM
Cc1c(F)ccc2c1OCC[C@H]1CNCCN21 [Example 244]				EC50 [3]: 0.0004 µM; Emax ([3]; CHO-K1, read-out: Emax (%), 5-HT2c Agonist Activity, CHO-K1 cells): 95%; EC50 [4]: 0.03 µM; Emax ([4]; CHO-K1, read-out: Emax (%), 5-HT2B Agonist Activity): 15%
c1ccc(CCc2ccc3c(c2)N2CCNC[C@@H]2CCO3)cc1 [Example 212, (4aS)-10-(2-phenylethyl)-2,3,4,4a,5,6-hexahydro-1H-pyrazino[2,1-d][1,5]benzoxazepine]				EC50 [3, 5]: 0.007 µM; Emax [3, 6]: 80%; EC50 [4, 7]: 0.4 µM; Emax ([4]; CHO-K1 cells, percentage relative to the effect of serotonin, read-out: Emax (%), 5-HT2B Agonist Activity): 45%
CC(C)COc1cccc(-c2ccc3c(c2)N2CCNCC2CC(=O)N3)c1 (stereo not shown) [Example 96, 10-(3-isobutoxyphenyl)-1,2,3,4,4a,5-hexahydropyrazino[1,2-a][1,5]benzodiazepin-6(7H)-one]				EC50 [3, 5]: 0.02 µM; Emax [3, 6]: > 120%; EC50 [4, 7]: > 10 µM
